Laboratory results published in ChEMBL document CHEMBL3301361, “Experimental in vitro DMPK and physicochemical data on a set of publicly disclosed compounds”.
Where a name gives a salt, the structure may show the parent alone. Residues, ends and D or L forms follow the SMILES beside them.

How the values were obtained:
[1] = in vitro; details: human, plasma
[2] = physchem; details: octan-1-ol/water

Compound | fraction unbound at 5 h ([1]; PPB) | logD ([2]; pH 7.4, LogD7.4) | fraction unbound at 5 h [1] | logD ([2]; pH 7.4)
Cc1cnc(Nc2cncc(N[C@@H](C)c3ncc(F)cn3)n2)s1 | 0.173 | 1.91 | – | –
NC(=O)c1cnc(N[C@H]2CCCNC2)c2cc(-c3ccc(F)cc3)sc12 | 0.0262 | 2.01 | – | –
Nc1nc2nc(-c3cccs3)cc(C(F)(F)F)n2n1 | 0.201 | 2.01 | – | –
N#Cc1c(N)nc2c(c1N)CC(COc1ccccc1)O2 (stereo unspecified) | 0.11 | 2.08 | – | –
O=C(CSc1nccn(-c2ccc(F)c(F)c2)c1=O)NC1CCCC1 | 0.28 | 2 | – | –
NC(=O)c1ccc(Oc2cccc3cccnc23)c([N+](=O)[O-])c1 | – | – | 0.0383 | 1.7
NCCCCCc1c[nH]c2ccc(F)cc12 | – | – | 0.36 | 0.6
C[C@H](Nc1ncc(F)c(Nc2cc(N(C)C)[nH]n2)n1)c1ncc(F)cn1 | 0.22 | 1.98 | – | –
Cc1cc(Nc2cc(N3CCOCC3)nc(N[C@@H](C)c3ncc(F)cn3)n2)[nH]n1 | 0.54 | 1.91 | – | –
Cc1nc(C(=O)[C@H](C)Oc2ccc(SCCCCCc3ccccc3)cc2)sc1CCCC(=O)O | 0.007 | 2.03 | – | –
O=C(O)c1cn(Cc2ccccc2)c2ccccc12 | – | – | 0.0191 | 1.19
CC(C)[C@H](NC(=O)C[C@H](NC(=O)/C=C/c1ccccc1)c1ccccc1)C(=O)[C@@H]1C(=O)NC(=O)[C@H]1C | 0.016 | 1.91 | – | –
O=C1COc2ccc(CNC3CCN(CCN4C(=O)COc5ccc(Br)cc54)CC3)nc2N1 | – | – | 0.0262 | 1.42
CN(C)S(=O)(=O)c1ccc2c(c1)N(CCN1CCC(NCc3ccc4c(n3)NC(=O)CO4)CC1)C(=O)CO2 | – | – | 0.0928 | 0.15
CS(=O)(=O)c1ccc2c(c1)N(CCN1CCC(NCc3ccc4c(n3)NC(=O)CO4)CC1)C(=O)CO2 | – | – | 0.145 | -0.51
CCS(=O)(=O)c1ccc2c(c1)N(CCN1CCC(NCc3ccc4c(n3)NC(=O)CO4)CC1)C(=O)CO2 | – | – | 0.304 | -0.11
O=C1COc2ccc(CNC3CCN(CCN4C(=O)COc5ccc(OC(F)(F)F)cc54)CC3)nc2N1 | – | – | 0.0209 | 1.82
O=C1COc2ccc(CNC3CCN(CCN4C(=O)COc5ccc(Cl)cc54)CC3)nc2N1 | – | – | 0.072 | 1.33
O=C1COc2ccc(CNC3CCN(CCN4C(=O)COc5ccc(F)cc54)CC3)nc2N1 | – | – | 0.17 | 0.9
COc1ccc2c(c1)N(CCN1CCC(NCc3ccc4c(n3)NC(=O)CO4)CC1)C(=O)CO2 | – | – | 0.112 | 0.87
O=C1COc2ccc(CNC3CCN(CCN4C(=O)COc5ccc(-c6ccco6)cc54)CC3)nc2N1 | – | – | 0.006 | 2.19
Oc1ncc(NCc2ccccc2)c(O)n1 | – | – | 0.635 | 0.82
O=C(Cc1ccc(Oc2ccccc2)cc1)NO | 0.02 | 2.03 | – | –
CC(C)Nc1nc(NCc2ccccc2)c2sccc2n1 | – | – | 0.0029 | 3.9

Compound | fraction unbound at 5 h ([1]; PPB) | logD ([2]; pH 7.4, LogD7.4) | fraction unbound at 5 h [1] | logD ([2]; pH 7.4)
COc1ccc2c(c1)N(CCN1CCC(NCc3cc4c(cn3)OCCO4)CC1)C(=O)CO2 | – | – | 0.176 | 1.24
O=C1COc2ccccc2N1CCN1CCC(NCc2cc3c(cn2)OCCO3)CC1 | – | – | 0.253 | 1.04
CN[C@@H](C)C(=O)N[C@H](C(=O)N[C@H]1CCCCN(Cc2ccccc2)C1)C1CCCCC1 | 0.197 | 2.12 | – | –
CNc1c(C(N)=O)cnc2[nH]c(-c3ccc(OCCN4CCOCC4)cc3)nc12 | 0.212 | 2.14 | – | –
COc1ccc(-c2nc3c(NCCCNC(=O)C4(CN)CC4)c(Br)cnc3[nH]2)cc1 | 0.0293 | 1.9 | – | –
O=C(Nc1ccccc1F)NC1N=C(c2ccccc2)c2ccccc2NC1=O (stereo unspecified) | – | – | 0.0262 | 3.8
O=c1[nH]c([C@@H]2CCCN2)nc2c1oc1ccc(Cl)cc12 | 0.072 | 2.01 | – | –
CCOc1cccc(/C=C2\SC(=O)NC2=O)c1N1CCC[C@@H](N)C1 | 0.0521 | 1.86 | – | –
CC(=O)Nc1ccc2ccn(-c3cc(NC4CC4)n4ncc(C#N)c4n3)c2c1 | – | – | 0.0139 | 3.29
CC(=O)Nc1ccc2ccn(-c3cc(NCCCN4CCCC4)n4ncc(C#N)c4n3)c2c1 | 0.0676 | 1.87 | – | –
Cc1ccc(C(=O)N(CCCN)[C@H](c2nc3cc(Cl)ccc3c(=O)n2Cc2ccccc2)C(C)C)cc1 | – | – | 0.0081 | 2.88
Cc1cn([C@H]2CCCN(S(=O)(=O)c3ccc(C(N)=O)c(Oc4cccc(Cl)c4)c3)C2)c(=O)[nH]c1=O | 0.0358 | 1.96 | – | –
CN1CCCC1CCNC(=O)c1ccc(Nc2ncc3cc(-c4ccncc4)ccc3n2)cc1 (stereo unspecified) | 0.0081 | 2.01 | – | –
CC(C)[C@H]1C(=O)N[C@H](CO)Cc2ccccc2N1C | – | – | 0.371 | 2.03
CC(=O)Nc1cccc(Nc2nc(NC3CC3)n3ncc(C#N)c3n2)c1 | 0.107 | 2.1 | – | –
Cc1ncc(-c2nc(Nc3ccc(C(=O)N4CC[C@H](N(C)C)C4)cc3)ncc2F)n1C(C)C | 0.258 | 2.16 | – | –
O=C(c1cccc(Cc2n[nH]c(=O)c3ccccc23)c1)N1CCN(c2ncccn2)CC1 | 0.0544 | 2.13 | – | –
O=C(Cc1ccc(OCc2ccccc2)cc1)NO | – | – | 0.0633 | 1.92
O=C(O)CNCCNc1ccc(Cl)c(C(=O)NCC23CC4CC(CC(C4)C2)C3)c1 | 0.072 | 1.94 | – | –
COc1cnc(-c2ccccn2)nc1NC(C)C | 0.224 | 2.01 | – | –
CCCCCCCC(=O)N[C@@H](CCN)C(=O)N[C@H](C(=O)N[C@@H](C)C(=O)N[C@H]1CCNC(=O)[C@H]([C@@H](C)O)NC(=O)[C@H](CCN)NC(=O)[C@H](CCN)NC(=O)[C@H](CC(C)C)NC(=O)[C@@H](Cc2ccccc2)NC(=O)[C@H](CCN)NC1=O)[C@@H](C)O (HELM PEPTIDE1{[CCCCCCCC(=O)[*:2]].[Dab].T.A.[Dab].[Dab].[dF].L.[Dab].[Dab].T}$PEPTIDE1,PEPTIDE1,5:R3-11:R2$$$V2.0) | 0.112 | – | – | –
CCCCCCCC(=O)N[C@@H](CCN)C(=O)N[C@H](C(=O)N[C@@H](CCN)C(=O)N[C@H]1CCNC(=O)[C@H]([C@@H](C)O)NC(=O)[C@H](C)NC(=O)[C@H](CCN)NC(=O)[C@H](CC(C)C)NC(=O)[C@@H](Cc2ccccc2)NC(=O)[C@H](CCN)NC1=O)[C@@H](C)O (HELM PEPTIDE1{[CCCCCCCC(=O)[*:2]].[Dab].T.[Dab].[Dab].[Dab].[dF].L.[Dab].A.T}$PEPTIDE1,PEPTIDE1,5:R3-11:R2$$$V2.0) | 0.132 | – | – | –
O[C@H](c1cc(C(F)(F)F)nc2c(C(F)(F)F)cccc12)[C@@H]1CCCCN1 [(R,S)-MEFLOQUINE] | 0.0214 | – | – | –
CC(C)(C)c1ccc2c(c1)CC[C@H]2NC(=O)Nc1cccc2[nH]ncc12 [ABT-102] | 0.0022 | – | – | –

Compound | fraction unbound at 5 h ([1]; PPB) | logD ([2]; pH 7.4, LogD7.4) | fraction unbound at 5 h [1] | logD ([2]; pH 7.4)
COc1ccc2c(c1O)-c1cccc3c1[C@@H](C2)N(C)CC3 [APOCIDEINE] | – | – | 0.062 | –
CCOC(=O)[C@H](CCc1ccccc1)N[C@H]1CCc2ccccc2N(CC(=O)O)C1=O [BENAZEPRIL] | 0.0409 | – | – | –
CC(C)C[C@H](NC(=O)[C@H](Cc1ccccc1)NC(=O)c1cnccn1)B(O)O [BORTEZOMIB] | 0.132 | – | – | –
CCCC[C@H](NC(C)=O)C(=O)N[C@H]1CC(=O)NCCCC[C@@H](C(=O)O)NC(=O)[C@H](Cc2c[nH]c3ccccc23)NC(=O)[C@H](CCCN=C(N)N)NC(=O)[C@@H](Cc2ccccc2)NC(=O)[C@H](Cc2cnc[nH]2)NC1=O [BREMELANOTIDE] | 0.729 | – | – | –
[H]/N=C(/N)c1ccc(NCc2nc3cc(C(=O)N(CCC(=O)O)c4ccccn4)ccc3n2C)cc1 [DABIGATRAN] | 0.529 | – | – | –
COc1ccc(OC)c(C(O)CN)c1 (stereo unspecified) [DESGLYMIDODRINE] | – | – | 0.78 | –
CC(NCCC(c1ccccc1)c1ccccc1)c1ccccc1 (stereo unspecified) [FENDILINE] | 0.0116 | – | – | –
CC1=C(/C=C/C(C)=C/C=C/C(C)=C/C(=O)Nc2ccc(O)cc2)C(C)(C)CCC1 [FENRETINIDE] | 0.0019 | – | – | –
COc1cc2ncn(-c3cc(OCc4ccccc4S(C)(=O)=O)c(C#N)s3)c2cc1OC [GSK-319347A] | 0.0111 | – | – | –
Fc1ccc(-c2c3cccc(C(F)(F)F)c3nn2Cc2ccc(F)cc2Cl)cc1 [LXR-623] | 0.0006 | – | – | –
CN(Cc1cnc2nc(N)nc(N)c2n1)c1ccc(C(=O)N[C@@H](CCC(=O)O)C(=O)O)cc1 [METHOTREXATE] | 0.535 | – | – | –
COC(=O)/C=C/C(=O)O [MONOMETHYL FUMARATE] | 0.139 | – | – | –
CN(CC(=O)O)NC(=O)C[C@H](N)C[C@@H](O)CN [NEGAMYCIN] | 0.874 | – | – | –
Cc1ccnc2c1NC(=O)c1cccnc1N2C1CC1 [NEVIRAPINE] | – | – | 0.557 | –
COc1ccc(-c2nc3ccc(C4=NNC(=O)CC4C)cc3[nH]2)cc1 (stereo unspecified) [PIMOBENDAN] | 0.11 | – | – | –
CCOc1cc(CC(=O)N[C@@H](CC(C)C)c2ccccc2N2CCCCC2)ccc1C(=O)O [REPAGLINIDE] | 0.009 | – | – | –
COC(=O)N(C)c1c(N)nc(-c2nn(Cc3ccccc3F)c3ncccc23)nc1N [RIOCIGUAT] | – | – | 0.0854 | –
CS(=O)(=O)c1ccc(C2=C(c3ccccc3)C(=O)OC2)cc1 [ROFECOXIB] | 0.069 | – | – | –
Nc1ccc(S(=O)(=O)Nc2ccnn2-c2ccccc2)cc1 [SULFAPHENAZOLE] | 0.0059 | – | – | –
CCN(CC)CCOc1ccc2c(c1)C(=O)c1cc(OCCN(CC)CC)ccc1-2 [TILORONE] | 0.517 | – | – | –
COc1cc(Cc2cnc(N)nc2N)cc(OC)c1OC [TRIMETHOPRIM] | 0.339 | – | – | –
Cc1ccc(/C(=C\CN2CCCC2)c2ccccn2)cc1 [TRIPROLIDINE] | 0.645 | – | – | –
O=C(O)[C@@H](c1ccc(OCc2ccc3ccccc3n2)cc1)C1CCCC1 [VELIFLAPON] | 0.0015 | – | – | –
C[C@@H](c1ncncc1F)[C@](O)(Cn1cncn1)c1ccc(F)cc1F [VORICONAZOLE] | – | – | 0.535 | –
